Test system: not listed separately
Test: Visible solubility / precipitation of test compounds in cell-culture media
Type: physicochemical
Conditions: cell-culture media; 0.1-500 µM
Procedure: Since the majority of test compound solutions with concentrations above 50 µM precipitated in cell-culture media, we performed cytotoxicity assays for healthy and cancer cells at 50 µM.

Solubility at test concentrations	SMILES
completely soluble at all concentrations	O=[N+]([O-])c1cc(F)c(N2CCN(c3ccc(F)cc3)CC2)cc1O [Compound 6d, 4-Fluoro-5-[4-(4-fluoro-phenyl)-piperazin-1-yl]-2-nitro-phenol]

Test system: not given
Test: not given
Conditions: not given

melting point [°C]	SMILES
168 to 170	Cc1ccc(N2CCN(c3cc4oc(C)nc4cc3F)CC2)cc1 [Compound 7b, 5-Fluoro-2-methyl-6-(4-p-tolyl-piperazin-1-yl)-benzooxazole]
151 to 152	O=[N+]([O-])c1cc(F)c(N2CCN(c3ccc(F)cc3)CC2)cc1O [Compound 6d, 4-Fluoro-5-[4-(4-fluoro-phenyl)-piperazin-1-yl]-2-nitro-phenol]

Test system: HepaRG cells (liver cells, hepatocytes)
Test: CellTiter-Glo luminescent cell viability (cytotoxicity) assay on hepatocytes
Type: cell-based, human
Conditions: 50 µM; HepaRG vs A-549
Procedure: (§1) The cytotoxicity of prepared benzoxazoles (7a–j) and intermediates (6a–j and 9) were measured by applying the CellTiter-Glo® luminescent cell proliferation assay (G755A, Promega, Madison, WI, USA). This method permits the determination of viable cells numbers in the culture based on quantitation of the ATP present, which denotes the presence of metabolically active cells. In vitro cytotoxicity analysis was overall performed following the protocol as described in “Guidance Document on Using in Vitro Data to Estimate in Vivo Starting Doses for Acute Toxicity Based on Recommendations” [18]. Human A-549 cells are human lung cancer epithelial cells, which were chosen as the tumor model, whereas the HepaRG™ cell line is a classic hepatic cell line that retains many characteristics of primary human hepatocytes. HepaRG™ cells are terminally differentiated.
(§2) Human cell cultures: Hepatocytes (HepaRG^TM cells) were obtained from Life Technologies, and were cultivated in William’s E Medium (Gibco, Life Technologies, Waltham, MA, USA) and supplemented with 1x GlutaMAX™ plus 1x HepaRG^TM General Purpose Medium Supplement in 25-cm^2 or 75-cm^2 flasks (TPP, Trasadingen, Switzerland) at 37 °C and 5% CO2. Lung cancer epithelial cells A-549 were propagated in Epilife Medium (Gibco, Life Technologies; MEPICF) and combined with CaCl2 and 1x-growth-supplement containing penicillin and streptomycin (Gibco, Life Technologies). For sub-culturing, cells were split at a ratio of 1:4 to 1:8. For cryopreservation, cells were frozen in 10% DMSO in liquid nitrogen.
(§3) Human cytotoxicity assay: Human hepatocytes or human lung carcinoma cells were seeded into sterile black clear-bottomed polystyrene Corning® CellBind® 96-well plates (Munich, Germany) at a density of 20,000 cells/well after calculating cell numbers from trypsinized samples in a classical Neubauer Improved hemocytometer (VWR, Munich, Germany). The cells were grown for 24 h at 37 °C in a 5% CO2 atmosphere in Epilife medium (keratinocytes) or William′s E medium (hepatocytes). After a 24-h recovery period, media were removed from the wells by aspiration. The cells were then immediately exposed to the respective test compounds or reference antibiotics (prepared in advance in 100 µL of the same media) for 24 h 37 °C with 5% CO2. The concentration tested ranged from 0.1 µM to 500 µM (0.1 µM, 1 µM, 10 µM, 50 µM, 100 µM, 250 µM, and 500 µM) and was formulated as a 100× concentrated stock each, resulting in a final constant DMSO concentration of 1% per 100-µL sample volume. Test series were each performed in triplicate, and additionally included a vehicle reference (DMSO only) plus another internal control for evaluating overall assay performance. Additionally, cells were visually examined under a light microscope for any morphological abnormalities relative to the untreated cells. Subsequently, cell viability, as an indicator of potential cytotoxicity, was measured by applying the CellTiter-Glo® luminescent cell proliferation assay (G755A, Promega, Madison, WI, USA). This method permits the determination of the number of viable cells in culture based on quantitation of the ATP present, which denotes the presence of metabolically active cells. To this end, 100 µL (equal to the volume of culture medium) of the kit-provided CellTiter-Glo® reagent (reconstituted by transferring the thawed CellTiter-Glo® buffer to the lyophilized enzyme and substrate mixture) was directly added to each well with a repetitive dispensing pipette. The contents were then mixed for 2 min at room temperature on an orbital minishaker (IKA® MS3 digital, Staufen, Germany) at 450 rpm to induce efficient cell lysis, and then further incubated for 10 min at room temperature for stabilization of the resultant luminescent signal. […]

SMILES	Toxicity to healthy cells versus lung cancer cells
Cc1ccc(N2CCN(c3cc4oc(C)nc4cc3F)CC2)cc1 [Compound 7b, 5-Fluoro-2-methyl-6-(4-p-tolyl-piperazin-1-yl)-benzooxazole]	more toxic to healthy cells compared with lung cancer cells

Same assay, conditions: Homo sapiens; HepaRG cells; standard

SMILES	IC50 [µM]
COc1cccc2c1C(=O)c1c(O)c3c(c(O)c1C2=O)C[C@@](O)(C(=O)CO)C[C@@H]3O[C@H]1C[C@H](N)[C@H](O)[C@H](C)O1 [doxorubicine, reference compound]	5.1

Same assay, conditions: hepatocytes (HepaRG); equal toxicity to both cell lines

SMILES	CT50
O=[N+]([O-])c1cc(F)c(N2CCN(c3ccc(F)cc3)CC2)cc1O [Compound 6d, 4-Fluoro-5-[4-(4-fluoro-phenyl)-piperazin-1-yl]-2-nitro-phenol]	~ 50 µM

Test system: not listed separately
Test: as above
Type: cell-based, human
Conditions: human; Liver cells, hepatocytes (HepaRG); 0.1 µM; 24 h; vs DMSO vehicle
Procedure: as §1, §2, §3

SMILES	viability at 24 h, 0.1 µM [%]
Cc1ccc(N2CCN(c3cc4oc(C)nc4cc3F)CC2)cc1 [Compound 7b, 5-Fluoro-2-methyl-6-(4-p-tolyl-piperazin-1-yl)-benzooxazole]	105
O=[N+]([O-])c1cc(F)c(N2CCN(c3ccc(F)cc3)CC2)cc1O [Compound 6d, 4-Fluoro-5-[4-(4-fluoro-phenyl)-piperazin-1-yl]-2-nitro-phenol]	94

Same assay, conditions: human; Liver cells, hepatocytes (HepaRG); 1 µM; 24 h; vs DMSO vehicle

SMILES	viability at 24 h, 1 µM [%]
Cc1ccc(N2CCN(c3cc4oc(C)nc4cc3F)CC2)cc1 [Compound 7b, 5-Fluoro-2-methyl-6-(4-p-tolyl-piperazin-1-yl)-benzooxazole]	99
O=[N+]([O-])c1cc(F)c(N2CCN(c3ccc(F)cc3)CC2)cc1O [Compound 6d, 4-Fluoro-5-[4-(4-fluoro-phenyl)-piperazin-1-yl]-2-nitro-phenol]	87

Same assay, conditions: human; Liver cells, hepatocytes (HepaRG); 10 µM; 24 h; vs DMSO vehicle

SMILES	viability at 24 h, 10 µM [%]
Cc1ccc(N2CCN(c3cc4oc(C)nc4cc3F)CC2)cc1 [Compound 7b, 5-Fluoro-2-methyl-6-(4-p-tolyl-piperazin-1-yl)-benzooxazole]	91
O=[N+]([O-])c1cc(F)c(N2CCN(c3ccc(F)cc3)CC2)cc1O [Compound 6d, 4-Fluoro-5-[4-(4-fluoro-phenyl)-piperazin-1-yl]-2-nitro-phenol]	101

Same assay, conditions: human; Liver cells, hepatocytes (HepaRG); 50 µM; 24 h; vs DMSO vehicle

SMILES	viability at 24 h, 50 µM [%]
Cc1ccc(N2CCN(c3cc4oc(C)nc4cc3F)CC2)cc1 [Compound 7b, 5-Fluoro-2-methyl-6-(4-p-tolyl-piperazin-1-yl)-benzooxazole]	63
O=[N+]([O-])c1cc(F)c(N2CCN(c3ccc(F)cc3)CC2)cc1O [Compound 6d, 4-Fluoro-5-[4-(4-fluoro-phenyl)-piperazin-1-yl]-2-nitro-phenol]	57

Same assay, conditions: human; Liver cells, hepatocytes (HepaRG); 100 µM; 24 h; vs DMSO vehicle

SMILES	viability at 24 h, 100 µM [%]
Cc1ccc(N2CCN(c3cc4oc(C)nc4cc3F)CC2)cc1 [Compound 7b, 5-Fluoro-2-methyl-6-(4-p-tolyl-piperazin-1-yl)-benzooxazole]	60
O=[N+]([O-])c1cc(F)c(N2CCN(c3ccc(F)cc3)CC2)cc1O [Compound 6d, 4-Fluoro-5-[4-(4-fluoro-phenyl)-piperazin-1-yl]-2-nitro-phenol]	62

Same assay, conditions: human; Liver cells, hepatocytes (HepaRG); 250 µM; 24 h; vs DMSO vehicle

SMILES	viability at 24 h, 250 µM [%]
O=[N+]([O-])c1cc(F)c(N2CCN(c3ccc(F)cc3)CC2)cc1O [Compound 6d, 4-Fluoro-5-[4-(4-fluoro-phenyl)-piperazin-1-yl]-2-nitro-phenol]	44

Same assay, conditions: human; Liver cells, hepatocytes (HepaRG); 500 µM; 24 h; vs DMSO vehicle

SMILES	viability at 24 h, 500 µM [%]
O=[N+]([O-])c1cc(F)c(N2CCN(c3ccc(F)cc3)CC2)cc1O [Compound 6d, 4-Fluoro-5-[4-(4-fluoro-phenyl)-piperazin-1-yl]-2-nitro-phenol]	13

Test system: A-549 lung carcinoma cells
Test: CellTiter-Glo luminescent cell viability (cytotoxicity) assay on lung cancer cells
Type: cell-based, human
Conditions: A-549 lung cancer cells; equal toxicity to both cell lines
Procedure: as §1, §2, §3

SMILES	CT50
O=[N+]([O-])c1cc(F)c(N2CCN(c3ccc(F)cc3)CC2)cc1O [Compound 6d, 4-Fluoro-5-[4-(4-fluoro-phenyl)-piperazin-1-yl]-2-nitro-phenol]	~ 50 µM

Same assay, conditions: Homo sapiens, A549; Lung cancer cells (A-549); 0.1 µM; 24 h; vs DMSO vehicle

SMILES	viability at 0.1 µM [%]
Cc1ccc(N2CCN(c3cc4oc(C)nc4cc3F)CC2)cc1 [Compound 7b, 5-Fluoro-2-methyl-6-(4-p-tolyl-piperazin-1-yl)-benzooxazole]	92
O=[N+]([O-])c1cc(F)c(N2CCN(c3ccc(F)cc3)CC2)cc1O [Compound 6d, 4-Fluoro-5-[4-(4-fluoro-phenyl)-piperazin-1-yl]-2-nitro-phenol]	103

Same assay, conditions: Homo sapiens, A549; Lung cancer cells (A-549); 1 µM; 24 h; vs DMSO vehicle

SMILES	viability at 1 µM [%]
Cc1ccc(N2CCN(c3cc4oc(C)nc4cc3F)CC2)cc1 [Compound 7b, 5-Fluoro-2-methyl-6-(4-p-tolyl-piperazin-1-yl)-benzooxazole]	94
O=[N+]([O-])c1cc(F)c(N2CCN(c3ccc(F)cc3)CC2)cc1O [Compound 6d, 4-Fluoro-5-[4-(4-fluoro-phenyl)-piperazin-1-yl]-2-nitro-phenol]	111

Same assay, conditions: Homo sapiens, A549; Lung cancer cells (A-549); 10 µM; 24 h; vs DMSO vehicle

SMILES	viability at 10 µM [%]
Cc1ccc(N2CCN(c3cc4oc(C)nc4cc3F)CC2)cc1 [Compound 7b, 5-Fluoro-2-methyl-6-(4-p-tolyl-piperazin-1-yl)-benzooxazole]	92
O=[N+]([O-])c1cc(F)c(N2CCN(c3ccc(F)cc3)CC2)cc1O [Compound 6d, 4-Fluoro-5-[4-(4-fluoro-phenyl)-piperazin-1-yl]-2-nitro-phenol]	78

Same assay, conditions: Homo sapiens, A549; Lung cancer cells (A-549); 50 µM; 24 h; vs DMSO vehicle

SMILES	viability at 50 µM [%]
Cc1ccc(N2CCN(c3cc4oc(C)nc4cc3F)CC2)cc1 [Compound 7b, 5-Fluoro-2-methyl-6-(4-p-tolyl-piperazin-1-yl)-benzooxazole]	87
O=[N+]([O-])c1cc(F)c(N2CCN(c3ccc(F)cc3)CC2)cc1O [Compound 6d, 4-Fluoro-5-[4-(4-fluoro-phenyl)-piperazin-1-yl]-2-nitro-phenol]	58

Same assay, conditions: Homo sapiens, A549; Lung cancer cells (A-549); 100 µM; 24 h; vs DMSO vehicle

SMILES	viability at 100 µM [%]
Cc1ccc(N2CCN(c3cc4oc(C)nc4cc3F)CC2)cc1 [Compound 7b, 5-Fluoro-2-methyl-6-(4-p-tolyl-piperazin-1-yl)-benzooxazole]	75
O=[N+]([O-])c1cc(F)c(N2CCN(c3ccc(F)cc3)CC2)cc1O [Compound 6d, 4-Fluoro-5-[4-(4-fluoro-phenyl)-piperazin-1-yl]-2-nitro-phenol]	54

Same assay, conditions: Homo sapiens, A549; Lung cancer cells (A-549); 250 µM; 24 h; vs DMSO vehicle

SMILES	viability at 250 µM [%]
O=[N+]([O-])c1cc(F)c(N2CCN(c3ccc(F)cc3)CC2)cc1O [Compound 6d, 4-Fluoro-5-[4-(4-fluoro-phenyl)-piperazin-1-yl]-2-nitro-phenol]	46

Same assay, conditions: Homo sapiens, A549; Lung cancer cells (A-549); 500 µM; 24 h; vs DMSO vehicle

SMILES	viability at 500 µM [%]
O=[N+]([O-])c1cc(F)c(N2CCN(c3ccc(F)cc3)CC2)cc1O [Compound 6d, 4-Fluoro-5-[4-(4-fluoro-phenyl)-piperazin-1-yl]-2-nitro-phenol]	34

Source: publication PMC6274350, “Design, Synthesis, and Cytotoxicity of 5-Fluoro-2-methyl-6-(4-aryl-piperazin-1-yl) Benzoxazoles” (Molecules, 2016)
